Assay results as given in publication PMC10331583, “Control of fibrosis with enhanced safety via asymmetric inhibition of prolyl‐tRNA synthetase 1” (EMBO Molecular Medicine, 2023).
Several values for one entry are separate records, joined by “and”; a condition that tells them apart may be missing. Equal entries are not always repeated.

What was measured:
[1] = tested on: C57BL/6 mice; assay: Bleomycin‐induced lung fibrosis, therapeutic model 1 (compounds from a week after bleomycin); assay type: in vivo
Experimental: To examine therapeutic efficacy of DWN12088, all experiments were conducted following the international guidelines on the ethical use of experimental animals and approved by the Institutional Animal Care and Use Committee of Daewoong Pharmaceutical (IACUC‐21‐014). C57BL/6 mice (7–8‐week‐old, male, obtained from Orient Bio) were anesthetized with Zoletil and injected intratracheally with 100 μl bleomycin (2 units/kg) (Merck, B8416) to induce lung fibrosis. A group of disease‐free mice (“untreated”) were injected with PBS instead of bleomycin. After a week, mice treated with bleomycin were randomized to (i) vehicle (saline), (ii) HF 0.05 mg/kg, (iii) HF 0.1 mg/kg, and (iv) DWN12088 10 mg/kg groups (n = 5 for each group) according to their body weight. The drugs were orally administered once daily for 2 weeks, and then the outcome was analyzed. For the experiments testing the effect of the compounds 2 weeks after bleomycin challenge, the experiment was approved by IACUC of Daewoong Pharmaceutical (IACUC‐22‐009). The experimental procedures were performed following the methods described previously, with the exception that the compounds were administered 2 weeks after bleomycin challenge. The experiments were conducted as non‐blind tests.
Mice were anesthetized with Zoletil for 10 min, and a portable mouse pulse oximeter (Veterinary Pulse Oximeter, Berry Electronic) was placed on each mouse's body. The measurements were continued to allow the recording of 3 min of a stable signal.
The collagen contents of lung tissues were measured using Sircol™ soluble collagen assay (Biocolor Ltd., S1000) following the manufacturer's instructions. Briefly, the right lung lobes were homogenized, and collagen was solubilized in 0.5 M acetic acid. Tissue extracts were incubated with Sirius red dye, and the absorbance was determined at 540 nm using a spectrophotometer. The amount of collagen was expressed relative to the wet weight of the tissues.
The lung tissues were fixed in paraformaldehyde and embedded in paraffin. The paraffin‐embedded blocks were sectioned at 4 μm and then mounted onto glass slides. After deparaffinization and rehydration, the slides were fixed with Bouin's solution (Sigma Aldrich, HT10132‐1L) for 1 h. Then, the slides were incubated with hematoxylin (Sigma Aldrich, MHS16‐500ML), Biebrich Scarlet (Sigma Aldrich, B‐6008) and acid fuchsin (Sigma Aldrich, A‐3908), phosphomolybdic (DAEJUNG, 6531‐4105) and phosphotungstic acid (DAEJUNG, 6539‐4105), aniline blue (DAEJUNG, 1087‐4125), and then 1% (v/v) acetic acid (DUKSAN, UN2789). After dehydration, the slides were mounted onto cover slips and scanned using slide scanner (3D HISTECH, Pannoramic MIDI). Fibrotic area of the images was quantified by using Image J plugin, color deconvolution 2.

[2] = molecular target: T1, PARS1 WT (Homo sapiens, UniProt P07814); assay: Microscale thermophoresis (MST), PARS1 WT; assay type: binding; settings: for Fraction bound: single replicates
T1 construct: His‐PARS1 (1001–1,512 aa); made in house; host or cells: Escherichia coli
T1 sequence (P07814 1001-1512 limits assumed): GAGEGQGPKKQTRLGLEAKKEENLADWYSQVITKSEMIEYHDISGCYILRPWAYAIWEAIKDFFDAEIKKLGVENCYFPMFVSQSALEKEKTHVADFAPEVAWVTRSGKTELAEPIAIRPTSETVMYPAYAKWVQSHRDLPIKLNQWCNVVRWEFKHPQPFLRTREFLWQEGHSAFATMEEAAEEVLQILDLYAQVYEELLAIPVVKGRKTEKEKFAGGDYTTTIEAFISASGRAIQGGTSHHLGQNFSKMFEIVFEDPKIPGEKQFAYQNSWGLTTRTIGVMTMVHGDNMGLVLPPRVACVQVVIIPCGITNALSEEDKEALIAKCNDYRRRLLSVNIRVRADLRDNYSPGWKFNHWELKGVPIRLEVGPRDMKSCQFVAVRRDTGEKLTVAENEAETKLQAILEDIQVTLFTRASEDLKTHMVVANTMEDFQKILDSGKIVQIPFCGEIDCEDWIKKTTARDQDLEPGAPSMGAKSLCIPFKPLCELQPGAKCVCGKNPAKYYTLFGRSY

[3] = molecular target: T2, His‐PARS1 (Homo sapiens, UniProt P07814); assay: Surface plasmon resonance (SPR); assay type: binding
T2 construct: His‐PARS1 (1001–1,512 aa); made in house; host or cells: Escherichia coli
T2 sequence (P07814 1001-1512 limits assumed): T1 sequence (P07814 1001-1512 limits assumed)

Question: Which “efficacy (SpO2, BALF total cell count, collagen contents)” value ([1]; 10 mg/kg oral once a day, 2 weeks, versus nintedanib 60 mg/kg and pirfenidone 200 mg/kg (Fig EV4D–F)) does the source give for `O[C@H]1CCCN[C@@H]1CCCn1cnc2c(Cl)c(Cl)ccc21` [DWN12088] here?
Answer: The value was “comparable with nintedanib and pirfenidone”.

Question: What about the “BALF total cell count, average” value ([1]; BLM +, 10 mg/kg) of the same compound?
Answer: Its value is 8.46 x105 cells.

Question: And the “BALF total cell count, single animal” value ([1]; BLM +, 10 mg/kg)?
Answer: The value was 9.8 x105 cells and 8.9 x105 cells and 6.4 x105 cells and 7.5 x105 cells and 9.7 x105 cells.

Question: What about the “Collagen contents, average” value ([1]; BLM +, 10 mg/kg) of the same compound?
Answer: The value was 213.8 μg/right lung.

Question: What about the “Collagen contents, single animal” value ([1]; BLM +, 10 mg/kg) of the same compound?
Answer: Its value is 175 μg/right lung and 275 μg/right lung and 198 μg/right lung and 165 μg/right lung and 256 μg/right lung.

Question: What about the “Fibrotic area, average” value ([1]; BLM +, 10 mg/kg) of the same compound?
Answer: The value was 173.8 % of control.

Question: And the “Fibrotic area, single animal” value ([1]; BLM +, 10 mg/kg)?
Answer: Its value is 230.8 % of control and 181.2 % of control and 123.5 % of control and 151.5 % of control and 182.0 % of control.

Question: And the “SpO2, average” value ([1]; BLM +, 10 mg/kg)?
Answer: The value was 81.0%.

Question: What about the “SpO2, single animal” value ([1]; BLM +, 10 mg/kg) of the same compound?
Answer: Its value is 87% and 81% and 88% and 72% and 77%.

Question: What about the “collagen deposition, Masson's trichrome staining” value ([1]; lung tissue (Fig 1H and I)) of the same compound?
Answer: The value was “decreased collagen deposition in the interstitial spaces”.

Question: What about the fibrotic properties ([1]; model 1, drug administration from day 7) of the same compound?
Answer: Its fibrotic properties is “significantly reduced fibrotic properties”.

Question: What about the “in vivo effective dose of DWN12088 relative to that of HF” value ([1]; mouse, in vivo) of the same compound?
Answer: Its value is “about 100 times”.

Question: What about the “Fraction bound, average” value ([2]; Dose 30.5176 nM) of the same compound?
Answer: The value was -0.2054.

Question: And the Fraction bound ([2]; Dose 30.5176 nM)?
Answer: Its Fraction bound is -0.1847 and -0.2552 and -0.1762.

Question: What about the “Fraction bound, average” value ([2]; Dose 61.0352 nM) of the same compound?
Answer: Its value is -0.1331.

Question: What about the Fraction bound ([2]; Dose 61.0352 nM) of the same compound?
Answer: The Fraction bound was -0.1271 and -0.1077 and -0.1644.

Question: What about the “Fraction bound, average” value ([2]; Dose 122.07 nM) of the same compound?
Answer: The value was -0.0578.

Question: What about the Fraction bound ([2]; Dose 122.07 nM) of the same compound?
Answer: Its Fraction bound is 0.0166 and -0.0399 and -0.1500.

Question: And the “Fraction bound, average” value ([2]; Dose 244.141 nM)?
Answer: The value was 0.0543.

Question: What about the Fraction bound ([2]; Dose 244.141 nM) of the same compound?
Answer: Its Fraction bound is -0.0356 and 0.0851 and 0.1134.

Question: And the “Fraction bound, average” value ([2]; Dose 488.281 nM)?
Answer: The value was -0.0068.

Question: What about the Fraction bound ([2]; Dose 488.281 nM) of the same compound?
Answer: Its Fraction bound is 0.0147 and -0.0499 and 0.0148.

Question: What about the “Fraction bound, average” value ([2]; Dose 976.562 nM) of the same compound?
Answer: Its value is 0.1887.

Question: What about the Fraction bound ([2]; Dose 976.562 nM) of the same compound?
Answer: Its Fraction bound is 0.1745 and 0.1271 and 0.2645.

Question: And the “Fraction bound, average” value ([2]; Dose 1953.12 nM)?
Answer: The value was 0.3166.

Question: What about the Fraction bound ([2]; Dose 1953.12 nM) of the same compound?
Answer: Its Fraction bound is 0.2796 and 0.3408 and 0.3294.

Question: And the “Fraction bound, average” value ([2]; Dose 3906.25 nM)?
Answer: Its value is 0.1823.

Question: What about the Fraction bound ([2]; Dose 3906.25 nM) of the same compound?
Answer: The Fraction bound was 0.1409 and 0.1539 and 0.2519.

Question: What about the “Fraction bound, average” value ([2]; Dose 7812.5 nM) of the same compound?
Answer: The value was 0.3895.

Question: And the Fraction bound ([2]; Dose 7812.5 nM)?
Answer: Its Fraction bound is 0.3262 and 0.4199 and 0.4224.

Question: And the “Fraction bound, average” value ([2]; Dose 15625 nM)?
Answer: Its value is 0.4633.

Question: And the Fraction bound ([2]; Dose 15625 nM)?
Answer: Its Fraction bound is 0.4748 and 0.4733 and 0.4418.

Question: And the “Fraction bound, average” value ([2]; Dose 31250 nM)?
Answer: The value was 0.5523.

Question: What about the Fraction bound ([2]; Dose 31250 nM) of the same compound?
Answer: Its Fraction bound is 0.4690 and 0.5423 and 0.6454.

Question: What about the “Fraction bound, average” value ([2]; Dose 62500 nM) of the same compound?
Answer: The value was 0.5522.

Question: And the Fraction bound ([2]; Dose 62500 nM)?
Answer: Its Fraction bound is 0.5673 and 0.5892 and 0.5000.

Question: And the “Fraction bound, average” value ([2]; Dose 125000 nM)?
Answer: Its value is 0.7606.

Question: What about the Fraction bound ([2]; Dose 125000 nM) of the same compound?
Answer: The Fraction bound was 0.7942 and 0.7665 and 0.7210.

Question: And the “Fraction bound, average” value ([2]; Dose 250000 nM)?
Answer: The value was 0.9107.

Question: And the Fraction bound ([2]; Dose 250000 nM)?
Answer: Its Fraction bound is 0.9397 and 0.8612 and 0.9313.

Question: What about the “Fraction bound, average” value ([2]; Dose 500000 nM) of the same compound?
Answer: The value was 1.0322.

Question: And the Fraction bound ([2]; Dose 500000 nM)?
Answer: The Fraction bound was 1.1218 and 1.1050 and 0.8698.

Question: What about the “Fraction bound, average” value ([2]; Dose 1000000 nM) of the same compound?
Answer: Its value is 1.1170.

Question: And the Fraction bound ([2]; Dose 1000000 nM)?
Answer: Its Fraction bound is 1.1447 and 1.1049 and 1.1015.

Question: And the Kd ([2]; Kd (Fit Results), His-PARS1 WT, doses of the sheet in nM)?
Answer: The Kd was 20500 nM.

Question: What about the Kd ([2]; Kd, MST, in the presence of ATP) of the same compound?
Answer: The Kd was 20000 nM.

Question: What about the Kd ([2]; Kd, MST, in the presence of proline 30 μM) of the same compound?
Answer: Its Kd is 79000 nM.

Question: What about the Kd ([2]; Kd, MST, in the presence of proline 120 μM) of the same compound?
Answer: Its Kd is 108000 nM.

Question: And the Kd ([2]; Kd, WT, 5 mM ATP, mean ± SD, unit inferred)?
Answer: Its Kd is 20500 ± 8580 nM.

Question: What about the Kd ([3]; KD, + ATP (1 mM)) of the same compound?
Answer: The Kd was 31.1 µM.

Question: What about the Kd ([3]; KD, - ATP) of the same compound?
Answer: Its Kd is > 300 µM.

Question: And the Kd ([3]; Kd, SPR, in the presence of ATP)?
Answer: Its Kd is 31 µM.
